Data set [1] relates to BV2 (mouse microglia) cell line. Description: pHrodo-myelin phagocytosis/cell viability high content imaging assay: phagocytosis signal. In kind it is cell-based. Summed up:
(§1)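 Read by high content imaging: the phagocytosis signal plus viability, measured simultaneously, with three extracted measurements. Imaging was done roughly 22 hours after pHrodo-myelin was added.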

The subject of data set [2] is HMC3 (human microglia) cell line. The description is as above. In kind it is cell-based. The method, boiled down: as §1
In data set [3] the test system is BV2 (mouse microglia) cell line. The data set can be described thus: pHrodo-myelin phagocytosis/cell viability high content imaging assay: viability (cell count, nuclear area, nuclear intensity). The method, boiled down:
(§2)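 Duplicate single-point screen at 10 μM over 48 h, combined with pHrodo-myelin phagocytosis during the last 20 h. Cytotoxicity is taken from imaged cell counts and nuclear intensity changes, normalized to untreated wells as % control.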

The test system of data set [4] is HMC3 (human microglia) cell line. The description is as above. Summed up: as §2
Data set [5] can be described thus: Kinetic solubility in aqueous buffer pH 7.4 by total chemiluminescent nitrogen determination (Analiza). As to conditions: aqueous buffer, pH 7.4, aqueous buffer, kinetic from dmso stock.
The subject of data set [6] is protein product expressed by the gene target. As to conditions: cited from earlier work.
The nature of another data set: physchem. As to conditions: pH 7.4, aqueous buffer, kinetic from dmso stock.
The next data set has as its system cellular system. As to conditions: published cellular activity at 10 μM; cited from earlier work.
[7] abbreviates: BV2 cells, 10 uM compound, 48 hours treatment.
Setting [8] is: HMC3 cells, 10 uM compound, 48 hours treatment.
Setting [9] is: gene target APP, ref PubMed 22323718.

In brackets after ≈: the same amount, converted by molar mass. Read-outs that look alike come from different tables or passages of the source. A value given as a limit tells only on which side of the number the result lay.

On to `CCCCNc1ncc2c(-c3ccc(CN4CCN(C)CC4)cc3)cn([C@H]3CC[C@H](O)CC3)c2n1` [UNC2025C, reference compound], for which the “Inhibition of mouse microglial phagocytosis at 10 μM (<70% control)” value in data set [1] (10 μM, BV2) is on record as “Y (The compound was found to inhibit phagocytosis (response threshold: <70% control) when murine immortalized microglial cells were dosed at 10 μM (Y: yes))”. Also, the “phagocytosis in mouse microglial cells (< 70% control inhibition, > 150% control stimulation)” value in data set [1] (BV2, 10 μM, pHrodo-myelin) is “inhibited”. Besides, the “4. Phagocytosis (% control)” value in data set [1] (BV2 cells, 10 uM compound, 48 hours treatment, pHrodo-myelin final 20 hours) worked out at 0.168 % control. Further, the “Inhibition of human microglial phagocytosis at 10 μM (<70% control)” value in data set [2] (HMC3) is recorded as “Y (The compound was found to inhibit phagocytosis (response threshold: <70% control) when human immortalized microglial cells were dosed at 10 μM (Y: yes))”. The “phagocytosis in human microglial cells (< 70% control inhibition, > 150% control stimulation)” value in data set [2] (HMC3, 10 μM, pHrodo-myelin) was “inhibited”. In addition, the “4. Phagocytosis (% control)” value in data set [2] (HMC3 cells, 10 uM compound, 48 hours treatment, pHrodo-myelin final 20 hours) was 1.1 % control. Besides, the “Mouse microglial cytotoxicity at 10 μM (<70% control)” value in data set [3] (BV2) was “Y (The compound was found to be cytotoxic (cell count threshold: <70% control) when murine immortalized microglial cells were dosed at 10 μM (Y: yes))”. Further, in data set [3] (setting [7]), the “1. Cell count (% control)” value is on record as 17.3 % control, the “2. Nuclear Area (% Control)” value is 101.1 % Control and the “3. Nuclear DNA Intensity (% control)” value worked out at 19.1 % control. Besides, in data set [4] (HMC3), the “Human microglial cytotoxicity at 10 μM (<70% control)” value is reported as “Y (The compound was found to be cytotoxic (cell count threshold: <70% control) when human immortalized microglial cells were dosed at 10 μM (Y: yes))”. In addition, in data set [4] (setting [8]), the “1. Cell count (% control)” value amounted to 38.6 % control, the “2. Nuclear Area (% Control)” value was found to be 85.2 % Control and the “3. Nuclear DNA Intensity (% control)” value is on record as 178.5 % control. In addition, the solubility (kinetic) in data set [5] was 43.4 µM (≈ 20.7 µg/mL). In addition, in data set [6] (target MERTK, ref PubMed 25068800, 27649555), the “Reported on-target biochemical potency” value is 0.74 nM.
For the molecule `C[C@H](N/C(=N\c1cccc2ncccc12)NC#N)c1ccccc1` [A-804598], the “Inhibition of human microglial phagocytosis at 10 μM (<70% control)” value in data set [2] (HMC3) is on record as “Y (The compound was found to inhibit phagocytosis (response threshold: <70% control) when human immortalized microglial cells were dosed at 10 μM (Y: yes))”. In data set [5], the solubility (kinetic) turned out to be 31.1 µM (≈ 9.81 µg/mL). Moreover, the “Reported on-target biochemical potency” value in data set [6] (target P2X7, ref PubMed 18602931, 28716092, 28871219, 29934546) is reported as 10 nM.
As to `CCOC(=O)N1c2ccc(C(F)(F)F)cc2[C@@H](N(Cc2cc(C(F)(F)F)cc(C(F)(F)F)c2)C(=O)OC)C[C@H]1CC` [Torcetrapib], the kinetic solubility in data set [5] is less than 1.1 µM. Besides, the “Reported on-target biochemical potency” value in data set [6] (gene target CETP, ref Probe Miner, PubMed 17984165, 19164467) was 7.72 nM.
As for `CN1C(=N)N[C@](C)(c2cc(NC(=O)c3ccc(F)cn3)ccc2F)CS1(=O)=O` [Verubecestat (MK-8931)], in data set [5], the solubility (kinetic) was determined as 154 µM (≈ 63.3 µg/mL). The “Reported on-target biochemical potency (nM): BACE1” value in data set [6] (gene target BACE1, ref PubMed 27418961, 27023706) was 1.8 nM. Moreover, in data set [6] (gene target BACE2, ref PubMed 27418961, 27023706), the “Reported on-target biochemical potency (nM): BACE2” value is given as 0.37 nM.
For the molecule `CN(C)c1ccc2c(c1)Sc1cc(N(C)C)ccc1N2.CS(=O)(=O)O.CS(=O)(=O)O` [TRx0237 (LMTX) mesylate], the “Inhibition of human microglial phagocytosis at 10 μM (<70% control)” value in data set [2] (HMC3) was “Y (The compound was found to inhibit phagocytosis (response threshold: <70% control) when human immortalized microglial cells were dosed at 10 μM (Y: yes))”. For the same molecule, the “Mouse microglial cytotoxicity at 10 μM (<70% control)” value in data set [3] (BV2) was “Y (The compound was found to be cytotoxic (cell count threshold: <70% control) when murine immortalized microglial cells were dosed at 10 μM (Y: yes))”. For the same molecule, the “Human microglial cytotoxicity at 10 μM (<70% control)” value in data set [4] (HMC3) is given as “Y (The compound was found to be cytotoxic (cell count threshold: <70% control) when human immortalized microglial cells were dosed at 10 μM (Y: yes))”. In addition, in data set [5], the solubility (kinetic) is 115 µM. The “Reported on-target biochemical potency” value in data set [6] (target gene MAPT, ref PubMed 26809554) is listed as 160 nM.
With `Cc1ccc(NC(=O)c2ccc(CN3CCN(C)CC3)cc2)cc1Nc1nc(-c2cccnc2)cs1` [Masitinib (AB1010)], the “Inhibition of mouse microglial phagocytosis at 10 μM (<70% control)” value in data set [1] (10 μM, BV2) was “Y (The compound was found to inhibit phagocytosis (response threshold: <70% control) when murine immortalized microglial cells were dosed at 10 μM (Y: yes))”. Moreover, the “Inhibition of human microglial phagocytosis at 10 μM (<70% control)” value in data set [2] (HMC3) is given as “Y (The compound was found to inhibit phagocytosis (response threshold: <70% control) when human immortalized microglial cells were dosed at 10 μM (Y: yes))”. For the same molecule, the “Mouse microglial cytotoxicity at 10 μM (<70% control)” value in data set [3] (BV2) is “Y (The compound was found to be cytotoxic (cell count threshold: <70% control) when murine immortalized microglial cells were dosed at 10 μM (Y: yes))”. Also, the solubility (kinetic) in data set [5] amounted to 93.9 µM (≈ 46.8 µg/mL). The “Reported on-target biochemical potency” value in data set [6] (target KIT, ref PubMed PMC2746281) is given as 200 nM; in data set [6] (target LYN, ref PubMed PMC2746281), 510 nM; in data set [6] (target PDGFRα, ref PubMed PMC2746281) it was 540 nM; in data set [6] (target PDGFRβ, ref PubMed PMC2746281), 800 nM.
As for `CC(C)[C@H](O)C(=O)N[C@@H](C)C(=O)N[C@@H]1C(=O)N(C)CCc2ccccc21` [Semagacestat (LY450139)], in data set [1] (BV2, 10 μM), the “Stimulation of mouse microglial phagocytosis at 10 μM (>150% control)” value (“Stimulation … (>150% control)” for short) was “Y (The compound was found to stimulate phagocytosis (response threshold: >150% control) when murine immortalized microglial cells were dosed at 10 μM (Y: yes))”. Moreover, the kinetic solubility in data set [5] worked out at 176 µM (≈ 63.8 µg/mL). Also, in data set [6] (setting [9]), the “Reported on-target biochemical potency (nM): Aβ38” value is recorded as 12 nM, the “Reported on-target biochemical potency (nM): Aβ40” value is given as 12.1 nM and the “Reported on-target biochemical potency (nM): Aβ42” value is 10.9 nM.
With `O=c1ncn2nc(Sc3ccc(F)cc3F)ccc2c1-c1c(Cl)cccc1Cl` [Neflamapimod (VX-745)], in data set [1] (10 μM, BV2), the “Stimulation … (>150% control)” value was “Y (The compound was found to stimulate phagocytosis (response threshold: >150% control) when murine immortalized microglial cells were dosed at 10 μM (Y: yes))”. The molecule further returned a kinetic solubility in data set [5] of 48.1 µM (≈ 21 µg/mL). The “Reported on-target biochemical potency” value is reported as 220 nM in data set [6] (target MAPK11, ref PubMed 24900264) and 10 nM in data set [6] (target MAPK14, ref PubMed 24900264).
Molecule `N#CC(CCCN1CCN(/N=C/c2cccnc2)CC1)(c1ccccc1)c1ccccc1` [SC-26196] came in with a solubility (kinetic) in data set [5] of 1.9 µM (≈ 0.805 µg/mL). Besides, the “Reported on-target biochemical potency” value in data set [6] (gene target FADS2, ref PubMed 18719641, 23112819, 10419129) is reported as 200 nM.
Regarding `CCN(CC)Cc1ccc(C(=O)N(CCc2ccccc2OC)[C@@H]2CCNC2)cc1.Cl.Cl` [PF429242], in “physchem”, the solubility (kinetic) turned out to be 131 µM. In addition, in data set [1] (BV2 cells, 10 μM), the “Stimulation … (>150% control)” value is “Y (The compound was found to stimulate phagocytosis (response threshold: >150% control) when murine immortalized microglial cells were dosed at 10 μM (Y: yes))”. Further, the “Inhibition of human microglial phagocytosis at 10 μM (<70% control)” value in data set [2] (HMC3 cells) is recorded as “Y (The compound was found to inhibit phagocytosis (response threshold: <70% control) when human immortalized microglial cells were dosed at 10 μM (Y: yes))”. In addition, the “Reported as cell active (<10 μM)” value in the data set with cellular system is recorded as “Y (Published data supports that the compound is active in a cellular system when dosed at 10 μM (Y/N))”.
In data set [5], `O=C(N/N=C/c1ccc(Cl)cc1)c1ccccc1` [Compound 1e] came in with a kinetic solubility of 37.8 µM (≈ 9.78 µg/mL). Also, the “Reported on-target biochemical potency” value in data set [6] (gene target CTSH, ref PubMed 25181676) is given as 440 nM.
`COc1nc(OCc2cccc(-c3ccccc3)c2C)ccc1CNCCNC(C)=O.Cl` [BMS-202] registered a solubility (kinetic) in the data set “physchem” of 97.9 µM. Besides, in data set [1] (BV2 cells, 10 μM), the “Inhibition of mouse microglial phagocytosis at 10 μM (<70% control)” value is “Y (The compound was found to inhibit phagocytosis (response threshold: <70% control) when murine immortalized microglial cells were dosed at 10 μM (Y: yes))”. Besides, in data set [2] (HMC3 cells), the “Inhibition of human microglial phagocytosis at 10 μM (<70% control)” value is “Y (The compound was found to inhibit phagocytosis (response threshold: <70% control) when human immortalized microglial cells were dosed at 10 μM (Y: yes))”. Besides, the “Reported as cell active (<10 μM)” value in the data set with cellular system is “Y (Published data supports that the compound is active in a cellular system when dosed at 10 μM (Y/N))”. Besides, in data set [3] (BV2 cells, cell count <70% control), the “Mouse microglial cytotoxicity at 10 μM (<70% control)” value is recorded as “Y (The compound was found to be cytotoxic (cell count threshold: <70% control) when murine immortalized microglial cells were dosed at 10 μM (Y: yes))”. In data set [4] (HMC3 cells, cell count <70% control), the “Human microglial cytotoxicity at 10 μM (<70% control)” value is “Y (The compound was found to be cytotoxic (cell count threshold: <70% control) when human immortalized microglial cells were dosed at 10 μM (Y: yes))”.

The record behind these values is publication PMC9019904, “AD Informer Set: Chemical tools to facilitate Alzheimer's disease drug discovery” (Alzheimer's & Dementia : Translational Research & Clinical …, 2022).
